Source: ChEMBL document CHEMBL1129202, “Palladium-catalysed synthesis of some biologically active 5, 6-disubstituted uracils” (Bioorg Med Chem Lett, 1996)
pIC50: −log10 of the molar value.

The compounds below were run on CCRF-CEM (assay: In vitro cytotoxic activity against CCRF-CEM human lymphoblastoid cells in culture.).
Assay type: functional, cell-based

SMILES | pIC50
Cc1ccc(C(=O)/C=C/c2nc(O)nc(O)c2Br)cc1 | 5.59
Cc1ccc(C(=O)/C=C/c2cc(O)nc(O)n2)cc1 | 5.74
Cc1ccc(C(=O)/C=C/c2nc(O)nc(O)c2I)cc1 | 5.85
Cc1ccc(C(=O)/C=C/c2nc(O)nc(O)c2Cl)cc1 | 4.91
COc1ccc(C(=O)/C=C/c2cc(O)nc(O)n2)cc1 | 5.66
